Data on four compounds can be found in ChEMBL document CHEMBL4004848, “Dregamine and tabernaemontanine derivatives as ABCB1 modulators on resistant cancer cells” (Eur J Med Chem, 2017).

SMILES strings stand for the structures. Where only a bound is given, the exact number is not on record here.

In data set [1] the target is T1, ATP-dependent translocase ABCB1 (Homo sapiens, UniProt P08183). As to the kind of experiment: Inhibition of human ABCB1 expressed in mouse L5178Y cells assessed as potentiation of doxorubicin-induced cytotoxicity by measuring combination index at 1:25 doxorubicin to compound ratio after 48 hrs by MTT assay. It counts as cell-based. (In general: Tetrazolium assays rely on reduction of a dye to a coloured formazan, in cell work by metabolically active cells.)

In data set [2] the target is T1, ATP-dependent translocase ABCB1. As to the kind of experiment: Inhibition of human ABCB1 expressed in mouse L5178Y cells assessed as fluorescence activity ratio at 2 uM pretreated for 10 mins followed by rhodamine-123 addition after 20 mins by flow cytometry. The class given is cell-based.
The target is the same in data set [3]. Description: Inhibition of human ABCB1 expressed in mouse L5178Y cells pretreated for 10 mins followed by rhodamine-123 addition after 20 mins by flow cytometry. The class given is cell-based.
The nature of data set [4]: Selectivity index, ratio of IC50 for mouse NIH/3T3 cells to IC50 for mouse L5178Y cells. The class given is functional.
Data set [5] addresses T1, ATP-dependent translocase ABCB1. Description: Inhibition of human ABCB1 expressed in mouse L5178Y cells assessed as increase in rhodamine-123 accumulation by measuring side scatter count of cells at 20 uM pretreated for 10 mins followed by rhodamine-123 addition after 20 mins by flow cytometry (reference value: 903). It counts as cell-based.
Data set [6] has the same target. Description: Inhibition of human ABCB1 expressed in mouse L5178Y cells assessed as increase in rhodamine-123 accumulation by measuring forward scatter count of cells at 2 uM pretreated for 10 mins followed by rhodamine-123 addition after 20 mins by flow cytometry (reference value: 2206). It counts as cell-based.
For data set [7] the target is unchanged. As to the kind of experiment: Inhibition of human ABCB1 expressed in mouse L5178Y cells assessed as increase in rhodamine-123 accumulation by measuring forward scatter count of cells at 20 uM pretreated for 10 mins followed by rhodamine-123 addition after 20 mins by flow cytometry (reference value: 2206). It counts as cell-based.
The test system of data set [8] is L5178Y. As to the kind of experiment: Cytotoxicity against mouse L5178Y cells after 24 hrs by MTT assay. It counts as functional, cell-based.
The nature of data set [9]: Selectivity index, ratio of IC50 for mouse L5178Y cells to IC50 for human ABCB1 expressed in L5178Y cells.
The target of data set [10] is T1, ATP-dependent translocase ABCB1. Description: Inhibition of human ABCB1 expressed in mouse L5178Y cells assessed as increase in rhodamine-123 accumulation by measuring side scatter count of cells at 2 uM pretreated for 10 mins followed by rhodamine-123 addition after 20 mins by flow cytometry (reference value: 903). The class given is cell-based. In general terms: Flow cytometry measures light scatter and fluorescence of single cells or particles in a stream.

Data set [11] has as its system NIH3T3. Description: Cytotoxicity against mouse NIH/3T3 cells after 24 hrs by MTT assay. It counts as cell-based. To be noted: NIH3T3, 24 h.
The target in data set [12] is T1, ATP-dependent translocase ABCB1. As to the kind of experiment: Inhibition of human ABCB1 expressed in mouse L5178Y cells assessed as fluorescence activity ratio at 20 uM pretreated for 10 mins followed by rhodamine-123 addition after 20 mins by flow cytometry. It counts as cell-based.
Data set [13] has the same target. Description: Inhibition of human ABCB1 expressed in mouse L5178Y cells assessed as potentiation of doxorubicin-induced cytotoxicity by measuring combination index at 4:25 doxorubicin to compound ratio after 48 hrs by MTT assay. It counts as cell-based.
The target is the same in data set [14]. As to the kind of experiment: Inhibition of human ABCB1 expressed in mouse L5178Y cells assessed as potentiation of doxorubicin-induced cytotoxicity by measuring combination index at 1:5 doxorubicin to compound ratio after 48 hrs by MTT assay. The class given is cell-based.

T1 sequence (P08183 whole entry): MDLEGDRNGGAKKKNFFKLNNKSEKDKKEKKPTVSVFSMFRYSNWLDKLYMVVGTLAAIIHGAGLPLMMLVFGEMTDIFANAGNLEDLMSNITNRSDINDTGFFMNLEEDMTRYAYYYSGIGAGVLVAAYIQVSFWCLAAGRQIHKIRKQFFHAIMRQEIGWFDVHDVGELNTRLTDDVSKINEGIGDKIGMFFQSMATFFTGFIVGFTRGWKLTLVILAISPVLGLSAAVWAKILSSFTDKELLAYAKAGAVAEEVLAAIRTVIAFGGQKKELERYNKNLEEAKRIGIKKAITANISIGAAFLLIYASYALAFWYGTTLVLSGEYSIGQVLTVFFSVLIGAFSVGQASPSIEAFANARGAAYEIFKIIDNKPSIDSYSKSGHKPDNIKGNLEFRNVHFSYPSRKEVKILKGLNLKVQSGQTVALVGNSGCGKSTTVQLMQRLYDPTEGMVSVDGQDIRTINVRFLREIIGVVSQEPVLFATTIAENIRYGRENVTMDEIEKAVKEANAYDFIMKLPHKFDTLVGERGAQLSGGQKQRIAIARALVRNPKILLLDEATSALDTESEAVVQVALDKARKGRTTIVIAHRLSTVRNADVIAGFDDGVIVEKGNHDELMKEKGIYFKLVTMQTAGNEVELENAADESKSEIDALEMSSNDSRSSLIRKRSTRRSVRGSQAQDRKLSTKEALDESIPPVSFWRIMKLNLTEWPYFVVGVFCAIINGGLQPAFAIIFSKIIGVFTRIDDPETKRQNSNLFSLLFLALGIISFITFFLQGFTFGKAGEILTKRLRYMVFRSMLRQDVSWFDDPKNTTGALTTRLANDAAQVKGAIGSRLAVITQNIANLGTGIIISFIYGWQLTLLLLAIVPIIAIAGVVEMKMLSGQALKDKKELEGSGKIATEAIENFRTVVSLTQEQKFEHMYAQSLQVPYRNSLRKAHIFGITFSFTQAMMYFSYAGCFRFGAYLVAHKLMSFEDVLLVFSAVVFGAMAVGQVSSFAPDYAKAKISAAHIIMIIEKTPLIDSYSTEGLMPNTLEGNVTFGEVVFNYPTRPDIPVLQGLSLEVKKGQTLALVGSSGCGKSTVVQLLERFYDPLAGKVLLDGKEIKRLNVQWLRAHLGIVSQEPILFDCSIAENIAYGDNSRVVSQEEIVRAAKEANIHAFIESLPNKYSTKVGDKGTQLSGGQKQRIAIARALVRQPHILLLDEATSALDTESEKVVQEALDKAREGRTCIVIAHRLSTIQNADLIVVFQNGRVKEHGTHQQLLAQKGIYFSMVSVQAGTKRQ

For orientation: IC50 means the concentration needed to halve the response being measured. Low readings indicate greater potency in that assay, high ones weaker potency in that assay. Turning to `CC[C@H]1CN(C)[C@H]2Cc3c(n(Cc4ccccc4)c4ccccc34)C(=O)C[C@H]1[C@@H]2C(=O)OC`, the CI in [1] is reported as 0.23. For the same compound, the figures for the Ratio in [2] and in data set [12] were 4.82 and 55.74, respectively. Also, the “inhibition (INH)” value in data set [3] was “Dose-dependent effect”. Further, the figures for the “Ratio IC50” value in data set [4] and in data set [9] were 1.68 and 0.87, respectively. Besides, the Activity in data set [5] worked out at 1193; in data set [6], 2417; in data set [7], 2449; in data set [10], 1217. Besides, the half-maximal inhibitory concentration (IC50) in [8] came to 33.3 µM; in data set [11] it was 56.1 µM.
As for `CC[C@H]1CN(C)[C@H]2Cc3c([nH]c4ccccc34)/C(=N/NC(=O)OCc3ccc(OC)cc3)C[C@H]1[C@@H]2C(=O)OC`, in data set [1], the CI is 0.16. For the same compound, the Ratio in data set [2] was 31.88; in [12], 72.88. The “inhibition (INH)” value in [3] is reported as “Dose-dependent effect”. Also, the Activity in data set [5] stood at 746; in data set [6], 2262; in data set [7], 2278; in [10], 784. The IC50 in data set [8] was 34.3 µM; in [11], greater than 100 µM. In data set [9], the “Ratio IC50” value is 0.65.
For `CC[C@H]1CN(C)[C@H]2Cc3c([nH]c4ccccc34)/C(=N/NC(=S)NCc3cccnc3)C[C@H]1[C@@H]2C(=O)OC`, the Ratio is recorded as 1.27 in data set [2] and 30.98 in data set [12]. The CI in data set [13] is listed as 0.6. Besides, the “inhibition (INH)” value in [3] is “Dose-dependent effect”. Also, the “Ratio IC50” value is reported as 2.45 in [4] and 0.46 in data set [9]. The Activity in data set [5] was 805; in data set [6], 2244; in data set [7] it was 2301; in [10], 808. Moreover, the values for the IC50 in data set [8] and in [11] were 20.8 µM and 50.9 µM, respectively.
On to `CC[C@H]1CN(C)[C@H]2Cc3c([nH]c4ccccc34)C(=S)C[C@H]1[C@@H]2C(=O)OC`, for which the figures for the Ratio in data set [2] and in data set [12] were 2.99 and 51.15, respectively. Moreover, in [14], the CI is 0.22. In addition, the “inhibition (INH)” value in data set [3] is given as “Dose-dependent effect”. The Activity in data set [5] is recorded as 1226; in [6], 2242; in [7], 2242; in data set [10] it was 1120. Moreover, the IC50 in data set [8] is 54.5 µM; in data set [11] it was greater than 100 µM. Further, in data set [9], the “Ratio IC50” value was found to be 0.7.
